Paper PMC9775191, “A Subset Screen of the Compounds Australia Scaffold Library Identifies 7-Acylaminodibenzoxazepinones as Potent and Selective Hits for Anti-Giardia Drug Discovery” (Biomedicines, 2022)

Each compound was assayed on G. duodenalis BRIS/91/HEPU/1279 (assay: Primary Giardia screen at 10 µM (live-cell imaging, automated counting)). Conditions: 24 h.
Type: cell-based, Giardia duodenalis
In short: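 Singlicate, 10 μM final, 0.2% DMSO; sealed chambers, 3% O2/5% CO2/N2. Counts by live-cell imaging at 24 h and 48 h. % growth vs vehicle, media background subtracted; Z' per plate.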
For `O=[N+]([O-])c1ccccc1Sc1nnnn1C1CCOCC1` [SN00782002], the “Average % Inhibition 24h” value was 6.2%.

Same assay, conditions: 24 h, first singlicate assay
In the case of `O=[N+]([O-])c1ccccc1Sc1nnnn1C1CCOCC1` [SN00782002], the “% Inhibition n=1 24h” value was 12.3%.

Same assay, conditions: 24 h, re-assessment
`O=[N+]([O-])c1ccccc1Sc1nnnn1C1CCOCC1` [SN00782002] was tested, and the “% Inhibition n=2 24h” value was 0.0%.

Same assay, conditions: 48 h
`O=[N+]([O-])c1ccccc1Sc1nnnn1C1CCOCC1` [SN00782002] was tested, and the “Average % Inhibition 48h” value was 8.6%.

Same assay, conditions: 48 h, first singlicate assay
For `CC(C)(C)c1nc(CN2CCCN(C(=O)CCCNC(=O)NC3CCCCC3)CC2)no1` [SN00780682], the “% Inhibition n=1 48h” value was 11.6%. In the case of `Cc1ccc(C)c(NC(=O)N2CCC(c3c[nH]c4ncccc34)CC2)c1` [SN00780701], the “% Inhibition n=1 48h” value was 0.0%. For `c1ccc(CCN2CCC(c3c[nH]c4ncccc34)CC2)nc1` [SN00780706], the “% Inhibition n=1 48h” value was 11.5%. `CCCc1cc(N2CCOCC2)n2nc(C)c(-c3ccccc3)c2n1` [SN00780810] was tested, and the “% Inhibition n=1 48h” value was 20.2%. `O=C(C1CC=CCC1)N1CCN(S(=O)(=O)c2c[nH]c3ncccc23)CC1` (stereo not shown) [SN00781077] was tested, and the “% Inhibition n=1 48h” value was 7.5%. With `CCCCC(=O)N1CCN(S(=O)(=O)c2c[nH]c3ncccc23)CC1` [SN00781078] the “% Inhibition n=1 48h” value was 2.4%. `O=C(Cc1ccccc1Cl)NCCc1noc(-c2ccccn2)n1` [SN00781138] was tested, and the “% Inhibition n=1 48h” value was 21.7%. In the case of `CNC(=O)Cc1noc(-c2cccc(-n3cccn3)n2)n1` [SN00781149], the “% Inhibition n=1 48h” value was 4.9%. `O=S(=O)(Cc1ccc(C(F)(F)F)cc1)Cc1noc(C2CC2)n1` [SN00781153] was tested, and the “% Inhibition n=1 48h” value was 0.0%. For `CN1CCN(CC2CCN(c3ccc([N+](=O)[O-])cc3Cl)CC2)CC1` [SN00781176], the “% Inhibition n=1 48h” value was 33.0%. With `N/C(=N/OCc1ncc(-c2cccs2)o1)c1ccc(Oc2ccc(F)cc2)nc1` [SN00781212] the “% Inhibition n=1 48h” value was 41.6%. `O=C(Cc1csc(N2CCCNC2=O)n1)Nc1ccccc1OC(F)F` [SN00781228] was tested, and the “% Inhibition n=1 48h” value was 8.7%. For `COCCOCC(C)NC(=O)Cc1csc(N2CCCNC2=O)n1` (stereo not shown) [SN00781237], the “% Inhibition n=1 48h” value was 11.2%. For `Nc1cc(C2CCNCC2)[nH]n1` [SN00781241], the “% Inhibition n=1 48h” value was 7.2%. With `C1CNCC2CCCN2C1` (stereo not shown) [SN00781270] the “% Inhibition n=1 48h” value was 3.1%. With `Cc1ccccc1-c1noc(Cn2c(-c3ccccn3)noc2=O)n1` [SN00781291] the “% Inhibition n=1 48h” value was 0.0%. With `CCCc1noc(Cn2c(-c3ccc(OC)c(OC)c3)noc2=O)n1` [SN00781301] the “% Inhibition n=1 48h” value was 0.0%. With `O=C(NCC1CN2CCCC2CO1)c1ccccc1-n1cnnn1` (stereo not shown) [SN00781319] the “% Inhibition n=1 48h” value was 0.0%. `Cc1ccc([N+](=O)[O-])cc1NC(=O)N1CCC(n2cncn2)CC1` [SN00781334] was tested, and the “% Inhibition n=1 48h” value was 0.0%. `O=C(Cn1c(-c2ccccn2)noc1=O)N1CCc2sccc2C1` [SN00781376] was tested, and the “% Inhibition n=1 48h” value was 0.0%. With `O=C(Cn1c(-c2ccccn2)noc1=O)C12CC3CC(CC(C3)C1)C2` [SN00781381] the “% Inhibition n=1 48h” value was 21.7%. `O=C(Cn1c(-c2cccnc2)noc1=O)NCC1CCCO1` (stereo not shown) [SN00781423] was tested, and the “% Inhibition n=1 48h” value was 0.0%. In the case of `CCn1c(Cn2c(-c3cccnc3)noc2=O)nc2c(F)cccc21` [SN00781429], the “% Inhibition n=1 48h” value was 0.0%. `O=C(Cn1c(-c2ncccn2)noc1=O)N1CCCCC1` [SN00781438] was tested, and the “% Inhibition n=1 48h” value was 1.7%. With `Cn1ncc2c1CCCC2NC(=O)N1CCCCC(N2CCCC2)C1` (stereo not shown) [SN00781466] the “% Inhibition n=1 48h” value was 13.9%. For `Cc1csc(C2CCN(C(=O)c3ccccc3[N+](=O)[O-])CC2)n1` [SN00781474], the “% Inhibition n=1 48h” value was 8.2%. With `CCc1csc(C2CCCN(C(=O)c3ccc4c(c3)OCO4)C2)n1` (stereo not shown) [SN00781524] the “% Inhibition n=1 48h” value was 0.0%. In the case of `Cc1csc(C2CCCCN2)n1` (stereo not shown) [SN00781548], the “% Inhibition n=1 48h” value was 6.1%. `COCCN1CCN(c2nc(-c3ccncc3)nc3c2CCC3)CC1` [SN00781610] was tested, and the “% Inhibition n=1 48h” value was 15.0%. With `COc1ccc(-n2ccn3c(CCC(=O)Nc4cc(C)cc(C)c4)nnc3c2=O)cc1` [SN00781639] the “% Inhibition n=1 48h” value was 16.2%. In the case of `COCC(=O)Nc1ccc(NC(=O)c2cc3nc(C)ccc3o2)cc1` [SN00781689], the “% Inhibition n=1 48h” value was 14.1%. For `CN(C)C(=O)Cc1nc(CN2CCc3c(ncn3C)C2)cs1` [SN00781984], the “% Inhibition n=1 48h” value was 0.0%. With `Cn1cnc2c1CCN(Cc1csc(-c3ccco3)n1)C2` [SN00781992] the “% Inhibition n=1 48h” value was 24.5%. With `O=[N+]([O-])c1ccccc1Sc1nnnn1C1CCOCC1` [SN00782002] the “% Inhibition n=1 48h” value was 15.2%. With `NCC1CN(C2CC2)CCO1` (stereo not shown) [SN00782004] the “% Inhibition n=1 48h” value was 23.7%. `CCOc1cc(F)ccc1NC(=O)N1CCCC(N2CCCC2=O)C1` (stereo not shown) [SN00782090] was tested, and the “% Inhibition n=1 48h” value was 7.0%. In the case of `Cc1ncc(C(=O)NC2C3CCCOC3C2(C)C)s1` (stereo not shown) [SN00782098], the “% Inhibition n=1 48h” value was 9.0%. For `CC1(C)C(NC(=O)Nc2ccc([N+](=O)[O-])cc2)C2CCCOC21` (stereo not shown) [SN00782105], the “% Inhibition n=1 48h” value was 16.3%. With `Cc1cc(C)n(Cc2ccc(C(=O)N3CCN(Cc4n[nH]c(C)n4)CC3)cc2)n1` [SN00782137] the “% Inhibition n=1 48h” value was 1.5%. In the case of `COc1ccc(C(NC(=O)CN2CCN(Cc3n[nH]c(C)n3)CC2)C(C)C)cc1` (stereo not shown) [SN00782152], the “% Inhibition n=1 48h” value was 0.6%. With `CCn1cc(C2OCCC2CNC/C=C/c2ccccc2OC)cn1` (stereo not shown) [SN00782244] the “% Inhibition n=1 48h” value was 28.6%. For `CC(C)(C)OC(=O)N1CCN(S(=O)(=O)C2CN(C(=O)C3(CN)CCC3)C2)CC1` [SN00782268], the “% Inhibition n=1 48h” value was 1.1%. With `O=C(CCc1cnn(-c2ccccc2)c1)Nc1cc(C2CCOCC2)[nH]n1` [SN00782289] the “% Inhibition n=1 48h” value was 8.0%. `Cc1cccc(-c2noc(Cn3cccn3)n2)c1` [SN00782358] was tested, and the “% Inhibition n=1 48h” value was 0.0%. In the case of `COc1ccc(CNC(=O)N2CCN(C)CC2c2ccccc2)cn1` (stereo not shown) [SN00782363], the “% Inhibition n=1 48h” value was 0.0%. For `CCCCn1nnnc1CN1CCCC1Cn1cncn1` (stereo not shown) [SN00782373], the “% Inhibition n=1 48h” value was 0.0%. `CCn1cc(CN2CCCN(C(=O)C(C)n3cncn3)CC2)cn1` (stereo not shown) [SN00782395] was tested, and the “% Inhibition n=1 48h” value was 0.0%. In the case of `CCc1nnsc1C(=O)N1CCCN(Cc2ccccc2F)CC1` [SN00782451], the “% Inhibition n=1 48h” value was 0.0%. For `CCc1nnsc1C(=O)N1CCCN(Cc2cnn(CC)c2)CC1` [SN00782455], the “% Inhibition n=1 48h” value was 0.0%. `Cc1cc(C(=O)N2CCCN(Cc3cnn(C)c3)CC2)on1` [SN00782463] was tested, and the “% Inhibition n=1 48h” value was 0.0%. For `Cn1ncc2c(N3CCCN(C4CC4)CC3)ncnc21` [SN00782468], the “% Inhibition n=1 48h” value was 9.8%. With `CCN1CCCN(c2ncnc3c2c(Br)nn3C)CC1` [SN00782469] the “% Inhibition n=1 48h” value was 4.4%. In the case of `Cc1ccccc1OCC(=O)N1CCN(Cc2nnc3n2CCCCC3)CC1` [SN00782472], the “% Inhibition n=1 48h” value was 0.5%. With `OC(CN1CCCN(C2CC2)CC1)c1ccccc1C(F)(F)F` (stereo not shown) [SN00782563] the “% Inhibition n=1 48h” value was 5.9%. `COCCS(=O)(=O)N1CCCC1Cn1ccnc1` (stereo not shown) [SN00782604] was tested, and the “% Inhibition n=1 48h” value was 0.0%. `Cc1cc(C2CCCN(C(=O)CCc3cnn(C)c3)C2)n[nH]1` (stereo not shown) [SN00782611] was tested, and the “% Inhibition n=1 48h” value was 7.8%. For `Cc1nsc(N2CCCN(C(=O)NCc3ccccc3C)CC2)n1` [SN00782653], the “% Inhibition n=1 48h” value was 0.0%. In the case of `CCc1nnc2n1CCN(Cc1csc(-c3ccsc3)n1)C2` [SN00782656], the “% Inhibition n=1 48h” value was 24.2%. For `CCCCS(=O)(=O)N1CCC2(CC1)CC2c1nc(-c2cccc(Cl)c2)no1` (stereo not shown) [SN00782685], the “% Inhibition n=1 48h” value was 0.0%. `CCC(OC1CCCC1)C(=O)N1CCN(c2nccn2C)CC1` (stereo not shown) [SN00782691] was tested, and the “% Inhibition n=1 48h” value was 0.0%. With `COc1cccc(C2(C)NC(=O)N(Cc3csc(-c4ccccc4)n3)C2=O)c1` (stereo not shown) [SN00782700] the “% Inhibition n=1 48h” value was 0.0%. In the case of `O=C1CC(C(=O)N2CCCCC2Cn2cccn2)CN1C1CCCC1` (stereo not shown) [SN00782719], the “% Inhibition n=1 48h” value was 0.0%. With `Cc1ccccc1C1CCN(C(=O)C2CCCC2)C1` (stereo not shown) [SN00782733] the “% Inhibition n=1 48h” value was 7.3%. `Cc1cnn(CC(C)NCc2nc(-c3ccccn3)no2)c1` (stereo not shown) [SN00782812] was tested, and the “% Inhibition n=1 48h” value was 19.9%. In the case of `COCCN1CCCN(C(=O)C2CCCN(S(C)(=O)=O)C2)CC1` (stereo not shown) [SN00782901], the “% Inhibition n=1 48h” value was 15.1%. `COc1ccc(CCC(=O)N2CCCN(C(=O)c3cc(-c4cccc(Cl)c4)on3)CC2)cc1` [SN00782943] was tested, and the “% Inhibition n=1 48h” value was 0.0%. `CC1(C(=O)N2CCCC(CN3CCOCC3)C2)CC1(Cl)Cl` (stereo not shown) [SN00782980] was tested, and the “% Inhibition n=1 48h” value was 14.3%. For `CC(C)(C)NC(=O)CCN1CCc2[nH]nc(C(F)(F)F)c2C1` [SN00783032], the “% Inhibition n=1 48h” value was 9.6%. With `C=C(C)CN1Cc2ccccc2CC1c1nnc(CC)o1` (stereo not shown) [SN00783147] the “% Inhibition n=1 48h” value was 0.0%. With `Cc1nnc(C2Cc3ccccc3CN2CCOc2ccc(F)cc2)o1` (stereo not shown) [SN00783149] the “% Inhibition n=1 48h” value was 0.0%. In the case of `CN1CCN(CC2CCN(C(=O)Cc3cccc4ccccc34)CC2)CC1` [SN00783181], the “% Inhibition n=1 48h” value was 17.7%. With `CCC(C)(NCc1ncc(-c2cccs2)o1)c1nccs1` (stereo not shown) [SN00783193] the “% Inhibition n=1 48h” value was 26.6%. `Cc1nn(C)c(C)c1CC(C)NC(=O)NCC1CN2CCCC2CO1` (stereo not shown) [SN00783221] was tested, and the “% Inhibition n=1 48h” value was 15.6%. For `O=C(Cc1ccc2c(c1)CCC2)N1CCC(n2cncn2)CC1` [SN00783222], the “% Inhibition n=1 48h” value was 6.3%. For `O=C(Nc1cccc(C(=O)N2CCC(N3CCCC3)C2)c1)c1ccco1` (stereo not shown) [SN00783226], the “% Inhibition n=1 48h” value was 0.0%. With `CC(=O)NCc1ccc(C(=O)N2CCCCC(N3CCCC3)C2)cc1` (stereo not shown) [SN00783239] the “% Inhibition n=1 48h” value was 4.5%. In the case of `COCCN1C(=O)CCC(C(=O)O)C1c1cnn(-c2ccccc2)c1` (stereo not shown) [SN00783261], the “% Inhibition n=1 48h” value was 0.0%.

Same assay, conditions: 48 h, re-assessment
With `O=[N+]([O-])c1ccccc1Sc1nnnn1C1CCOCC1` [SN00782002] the “% Inhibition n=2 48h” value was 2.0%.
